The inhibition is the percentage by which the read-out fell short of the control. The IC50 is the concentration at which inhibition is half-maximal.

Assay [1] concerns the target MAGL (Homo sapiens (Human), UniProt Q99685). The experiment in a line: In vitro competitive activity-based protein profiling (gel-based, FP-Rh or HT-01 probe). The assay is classed as biochemical. Particulars: for IC50: read-out: MAGL Human PC3 (IC50). The protocol:
In Vitro Competitive Activity-Based Protein Profiling.
Proteomes (human prefrontal cortex or cell membrane fractions) (50 μL, 1.0 mg/mL total protein concentration) were preincubated with varying concentrations of inhibitors at 37° C. After 30 min, FP-Rh or HT-01 (1.0 μL, 50 μM in DMSO) was added and the mixture was incubated for another 30 min at room temperature. Reactions were quenched with SDS loading buffer (15 μL—4×) and run on SDS-PAGE.

Assay [2] concerns the target T1, MAGL (Mus musculus (Mouse), UniProt O35678). The assay can be described thus: Mouse brain proteomes from inhibitor treated mice (oral gavage, brain MAGL activity 4 h after administration). Format: in vivo. Particulars: 5 mg/kg oral gavage. On the procedure: Preparation of Mouse Brain Proteomes from Inhibitor Treated Mice.
Inhibitors were administered to wild-type C57B1/6J by oral gavage in a vehicle of polyethylene glycol.

For assay [3], the target named is T1, MAGL. The experiment in a line: In vitro competitive activity-based protein profiling, mouse brain proteome. Format: biochemical. Particulars: for inhibition at 1 µM: mouse; for IC50: mouse brain.
Where [4] appears, read: human PC3, read-out: MAGL % Inhibition at 1 μM (human PC3).
The mark [5] stands for this setting: human PFC (prefrontal cortex), read-out: MAGL % Inhibition at 1 μM (human PFC).

Structures are written as SMILES. Where two headings read alike, the source gives them in different places. Where only a bound is given, the exact number is not on record here.

T1 sequence (O35678 whole entry): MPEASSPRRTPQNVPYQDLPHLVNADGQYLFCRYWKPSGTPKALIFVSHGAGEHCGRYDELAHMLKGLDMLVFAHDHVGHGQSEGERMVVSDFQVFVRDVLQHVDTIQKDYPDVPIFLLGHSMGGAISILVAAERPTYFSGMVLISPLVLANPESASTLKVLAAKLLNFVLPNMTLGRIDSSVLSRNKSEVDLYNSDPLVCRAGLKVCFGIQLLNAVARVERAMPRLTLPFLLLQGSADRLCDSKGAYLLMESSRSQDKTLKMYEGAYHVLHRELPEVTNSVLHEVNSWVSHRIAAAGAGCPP
Chain of MAGL (Homo sapiens (Human), UniProt Q99685) (Q99685 whole entry): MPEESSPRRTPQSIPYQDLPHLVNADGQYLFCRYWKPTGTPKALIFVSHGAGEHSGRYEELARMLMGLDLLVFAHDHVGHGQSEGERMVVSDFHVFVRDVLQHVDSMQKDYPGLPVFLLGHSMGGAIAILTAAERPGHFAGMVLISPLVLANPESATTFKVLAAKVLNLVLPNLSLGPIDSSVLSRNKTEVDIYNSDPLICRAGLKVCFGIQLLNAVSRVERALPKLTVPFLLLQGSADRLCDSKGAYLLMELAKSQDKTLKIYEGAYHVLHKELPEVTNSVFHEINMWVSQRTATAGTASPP

As to `O=C(OC(C(F)(F)F)C(F)(F)F)N1CCC2(CCCN2C(=O)C2(c3ncc(Cl)cn3)CC2)CC1` [Example 31, 1,1,1,3,3,3-Hexafluoropropan-2-yl 1-(1-(5-chloropyrimidin-2-yl)cyclopropane-1-carbonyl)-1,8-diazaspiro[4.5]decane-8-carboxylate], the inhibition at 1 µM at MAGL [1] (setting [4]), at MAGL [1] (setting [5]) and on MAGL [3] was > 75% in each case. Also, on MAGL [1] (human PC3), the IC50 is < 0.1 µM. Further, the “MAGL % Inhibition at 5 mg/kg (Mouse)” value at MAGL [2] is given as “### (% inhibition is greater than or equal to 75%)”.

`CC(C)C(=O)N1CCn2cc(C(=O)NC3(C)CCN(C(=O)OC(C(F)(F)F)C(F)(F)F)CC3)nc2C1` [Example 37, 1,1,1,3,3,3-Hexafluoropropan-2-yl 4-(7-isobutyryl-5,6,7,8-tetrahydroimidazo[1,2-a]pyrazine-2-carboxamido)-4-methylpiperidine-1-carboxylate]: the inhibition at 1 µM on MAGL [1] (setting [4]), at MAGL [1] (setting [5]) and on MAGL [3] was > 75% each time. For the same compound, at MAGL [1] (human PC3), the IC50 was < 0.1 µM. For the same compound, at MAGL [2], the “MAGL % Inhibition at 5 mg/kg (Mouse)” value is “# (% inhibition less or equal to 25%)”.

Turning to `O=C(OC(C(F)(F)F)C(F)(F)F)N1CCC2(CCCN2C(=O)C2(c3cnc(C4CC4)nc3)CC2)CC1` [Example 38, 1,1,1,3,3,3-Hexafluoropropan-2-yl 1-(1-(2-cyclopropylpyrimidin-5-yl)cyclopropane-1-carbonyl)-1,8-diazaspiro[4.5]decane-8-carboxylate], the inhibition at 1 µM at MAGL [1] (setting [4]), on MAGL [1] (setting [5]) and at MAGL [3] was > 75% throughout. In addition, the IC50 at MAGL [1] (human PC3) is < 0.1 µM. The “MAGL % Inhibition at 5 mg/kg (Mouse)” value at MAGL [2] was “### (% inhibition is greater than or equal to 75%)”.

Regarding `O=C(OC(C(F)(F)F)C(F)(F)F)N1CCC2(CCCN2Cc2cc(-c3ccc(F)cc3)on2)CC1` [Example 39, 1,1,1,3,3,3-Hexafluoropropan-2-yl 1-((5-(4-fluorophenyl)isoxazol-3-yl)methyl)-1,8-diazaspiro[4.5]decane-8-carboxylate], the IC50 on MAGL [1] (human PC3) is < 0.1 µM. Further, the “MAGL % Inhibition at 5 mg/kg (Mouse)” value on MAGL [2] is given as “### (% inhibition is greater than or equal to 75%)”. Also, at MAGL [3], the inhibition at 1 µM is > 75% and the IC50 was < 0.1 µM.

Turning to `O=C(OC(C(F)(F)F)C(F)(F)F)N1CCC2(CCCN2Cc2cc3cc(Cl)ccc3s2)CC1` [Example 40, 1,1,1,3,3,3-Hexafluoropropan-2-yl 1-((5-chlorobenzo[b]thiophen-2-yl)methyl)-1,8-diazaspiro[4.5] decane-8-carboxylate], the IC50 on MAGL [1] (human PC3) is < 0.1 µM. Moreover, the “MAGL % Inhibition at 5 mg/kg (Mouse)” value at MAGL [2] was “### (% inhibition is greater than or equal to 75%)”. At MAGL [3], the inhibition at 1 µM is > 75% and the IC50 is < 0.1 µM.

For the compound `Cc1ccc2nc(Cl)c(CN3CCCC34CCN(C(=O)OC(C(F)(F)F)C(F)(F)F)CC4)cc2c1` [Example 49, 1,1,1,3,3,3-Hexafluoropropan-2-yl 1-((2-chloro-6-methylquinolin-3-yl)methyl)-1,8-diazaspiro[4.5] decane-8-carboxylate], the IC50 on MAGL [1] (human PC3) and on MAGL [3] was < 0.1 µM each time. Further, the “MAGL % Inhibition at 5 mg/kg (Mouse)” value on MAGL [2] is “### (% inhibition is greater than or equal to 75%)”. The inhibition at 1 µM at MAGL [3] is > 75%.

For `O=C(OC(C(F)(F)F)C(F)(F)F)N1CCC2(CCCN2Cc2ccc3cc(F)ccc3n2)CC1` [Example 56, 1,1,1,3,3,3-Hexafluoropropan-2-yl 1-((6-fluoroquinolin-2-yl)methyl)-1,8-diazaspiro[4.5] decane-8-carboxylate], the IC50 at MAGL [1] (human PC3) was < 0.1 µM. At MAGL [2], the “MAGL % Inhibition at 5 mg/kg (Mouse)” value is “### (% inhibition is greater than or equal to 75%)”. Also, at MAGL [3], the inhibition at 1 µM was > 75% and the IC50 was < 0.1 µM.

Take `Cc1c(CN2CCCC23CCN(C(=O)OC(C(F)(F)F)C(F)(F)F)CC3)[nH]c2ccc(F)cc12` [Example 58, 1,1,1,3,3,3-Hexafluoropropan-2-yl 1-((5-fluoro-3-methyl-1H-indol-2-yl)methyl)-1,8-diazaspiro[4.5] decane-8-carboxylate]: the IC50 on MAGL [1] (human PC3) was < 0.1 µM. Further, the “MAGL % Inhibition at 5 mg/kg (Mouse)” value at MAGL [2] is given as “### (% inhibition is greater than or equal to 75%)”. In addition, at MAGL [3], the inhibition at 1 µM was > 75% and the IC50 was < 0.1 µM.

`O=C(OC(C(F)(F)F)C(F)(F)F)N1CCC2(CCCN2C(=O)c2cc3ccc(Cl)cc3s2)CC1` [Example 60, 1,1,1,3,3,3-Hexafluoropropan-2-yl 1-(6-chlorobenzo[b]thiophene-2-carbonyl)-1,8-diazaspiro[4.5] decane-8-carboxylate]: the IC50 at MAGL [1] (human PC3) and on MAGL [3] was < 0.1 µM throughout. For the same compound, on MAGL [2], the “MAGL % Inhibition at 5 mg/kg (Mouse)” value is on record as “### (% inhibition is greater than or equal to 75%)”. Besides, on MAGL [3], the inhibition at 1 µM is > 75%.

Consider `CN(Cc1cc2cc(Cl)ccc2s1)C1(C)CCN(C(=O)OC(C(F)(F)F)C(F)(F)F)CC1` [Example 62, 1,1,1,3,3,3-Hexafluoropropan-2-yl 4-(((5-chlorobenzo[b]thiophen-2-yl)methyl)(methyl)amino)-4-methylpiperidine-1-carboxylate], for which the IC50 at MAGL [1] (human PC3) was < 0.1 µM. Also, the “MAGL % Inhibition at 5 mg/kg (Mouse)” value on MAGL [2] is “### (% inhibition is greater than or equal to 75%)”. In addition, on MAGL [3], the inhibition at 1 µM was > 75% and the IC50 is < 0.1 µM.

As for `Cc1cc(C)c2[nH]c(C(=O)N3CCCC34CCN(C(=O)OC(C(F)(F)F)C(F)(F)F)CC4)c(C)c2c1` [Example 63, 1,1,1,3,3,3-Hexafluoropropan-2-yl 1-(3,5,7-trimethyl-1H-indole-2-carbonyl)-1,8-diazaspiro[4.5] decane-8-carboxylate], on MAGL [1] (human PC3), the IC50 is < 0.1 µM. In addition, the “MAGL % Inhibition at 5 mg/kg (Mouse)” value at MAGL [2] is reported as “### (% inhibition is greater than or equal to 75%)”. In addition, at MAGL [3], the inhibition at 1 µM was > 75% and the half-inhibitory concentration (IC50) is < 0.1 µM.

As for `Cn1cc(Cl)c(C(=O)N2CCCC23CCN(C(=O)OC(C(F)(F)F)C(F)(F)F)CC3)n1` [Example 120, 1,1,1,3,3,3-Hexafluoropropan-2-yl 1-(4-chloro-1-methyl-1H-pyrazole-3-carbonyl)-1,8-diazaspiro[4.5] decane-8-carboxylate], the inhibition at 1 µM on MAGL [1] (setting [5]) and on MAGL [3] was > 75% each time. For the same compound, the IC50 at MAGL [1] (human PC3) was < 0.1 µM. Besides, the “MAGL % Inhibition at 5 mg/kg (Mouse)” value on MAGL [2] is given as “### (% inhibition is greater than or equal to 75%)”.

With `O=C(O)C1CCN(c2nc(C(F)(F)F)ccc2CN2CCCC23CCN(C(=O)OC(C(F)(F)F)C(F)(F)F)CC3)CC1` [Example 123, 1-(3-((8-(((1,1,1,3,3,3-Hexafluoropropan-2-yl)oxy)carbonyl)-1,8-diazaspiro[4.5]decan-1-yl)methyl)-6-(trifluoromethyl)pyridin-2-yl)piperidine-4-carboxylic acid], the inhibition at 1 µM at MAGL [1] (setting [5]) and at MAGL [3] was > 75% throughout. Also, the IC50 at MAGL [1] (human PC3) is < 0.1 µM. For the same compound, at MAGL [2], the “MAGL % Inhibition at 5 mg/kg (Mouse)” value is on record as “### (% inhibition is greater than or equal to 75%)”.

In the case of `Cc1nc2ccc(Cl)nn2c1C(=O)N1CCCC12CCN(C(=O)OC(C(F)(F)F)C(F)(F)F)CC2` [Example 142, 1,1,1,3,3,3-Hexafluoropropan-2-yl 1-(6-chloro-2-methylimidazo[1,2-b]pyridazine-3-carbonyl)-1,8-diazaspiro[4.5] decane-8-carboxylate], the inhibition at 1 µM on MAGL [1] (setting [4]), on MAGL [1] (setting [5]) and at MAGL [3] was > 75% in each case. The IC50 at MAGL [1] (human PC3) was < 0.1 µM. Moreover, the “MAGL % Inhibition at 5 mg/kg (Mouse)” value at MAGL [2] is “### (% inhibition is greater than or equal to 75%)”.

Regarding `Cc1nc2cccnn2c1C(=O)N1CCCC12CCN(C(=O)OC(C(F)(F)F)C(F)(F)F)CC2` [Example 143, 1,1,1,3,3,3-Hexafluoropropan-2-yl 1-(2-methyl-imidazo[1,2-b]pyridazine-3-carbonyl)-1,8-diazaspiro[4.5] decane-8-carboxylate], the inhibition at 1 µM on MAGL [1] (setting [4]), at MAGL [1] (setting [5]) and on MAGL [3] was > 75% each time. The IC50 at MAGL [1] (human PC3) is < 0.1 µM. The “MAGL % Inhibition at 5 mg/kg (Mouse)” value at MAGL [2] is listed as “### (% inhibition is greater than or equal to 75%)”.

Consider `O=C(OC(C(F)(F)F)C(F)(F)F)N1CCC2(CCCN2C(=O)c2cnn3c2CCCC3)CC1` [Example 148, 1.1,1,3,3,3-Hexafluoropropan-2-yl 1-(4,5,6,7-tetrahydropyrazolo [1,5-a]pyridine-3-carbonyl)-1,8-diazaspiro[4.5] decane-8-carboxylate], for which the inhibition at 1 µM at MAGL [1] (setting [4]), on MAGL [1] (setting [5]) and at MAGL [3] was > 75% each time. Also, the IC50 at MAGL [1] (human PC3) is < 0.1 µM. Also, the “MAGL % Inhibition at 5 mg/kg (Mouse)” value at MAGL [2] is “### (% inhibition is greater than or equal to 75%)”.

As for `O=C(OC(C(F)(F)F)C(F)(F)F)N1CCC2(CCCN2C(=O)c2cc3nc(Cl)ccn3n2)CC1` [Example 151, 1,1,1,3,3,3-Hexafluoropropan-2-yl 1-(5-chloropyrazolo[1,5-a]pyrimidine-2-carbonyl)-1,8-diazaspiro[4.5] decane-8-carboxylate], the inhibition at 1 µM on MAGL [1] (setting [4]), on MAGL [1] (setting [5]) and at MAGL [3] was > 75% throughout. Further, the “MAGL % Inhibition at 5 mg/kg (Mouse)” value at MAGL [2] is “## (% inhibition is less than 75% and greater than 25%)”.

The record behind these values is US11142526B2, “Spirocycle compounds and methods of making and using same” (H. Lundbeck A/S, priority 2017, dated 2021).
